A short description of data set [1]: Solubility of components in the exemplary compositions. The note with it: in the current exemplary compositions. The format is physicochemical. How it is done:
Additional experiments provided a greater understanding of the ability to achieve certain functional goals for the final composition. Evaluation of phosphorus, calcium, vitamin D, fluoride, xylitol, and the pH of the alkaline ionized water was performed as described below.

Data set [2] is described as follows: Evaluation of calcium: bioavailability. The note with it: form of calcium.
The conditions of data set [3]: cited from earlier work.

Read-outs that look alike come from different tables or passages of the source.

As to `CC(O)C(=O)[O-].O=C([O-])[C@H](O)[C@@H](O)[C@H](O)[C@H](O)CO.[Ca+2]` [Calcium lactate gluconate], the solubility entry in data set [1] is given as “very soluble”. Further, the bioavailability entry in data set [2] is on record as “bioavailable”.

On to `OC[C@@H](O)[C@H](O)[C@@H](O)CO` [xylitol], for which the dosage causing diarrhea in data set [3] (adults) was 100 g/day; in data set [3] (children), 45 g/day. In addition, in data set [3] (most adults), the tolerated amount is recorded as 40 g/day.

Regarding vitamin D, the solubility entry in data set [1] is on record as “not soluble”.

The values above are taken from patent publication US20170035664A1, “FLAVOR-OPTIMIZED IONIZED WATER COMPOSITIONS” (priority 2015, published 2017).
